Experimental data from paper PMC7382816 (BMC Pharmacology & Toxicology, 2020).
Read-outs that look alike come from different tables or passages of the source.

Assays:
[1] = 40 mg; ref [27] Huber et al.; cited from earlier work
[2] = Single-dose pharmacokinetics in healthy volunteers under fasting and fed (high-fat breakfast) conditions, plasma concentrations by HPLC-MS, non-compartmental analysis; assay type: in vivo, human; set-up: Ke: unit not given here; settings: for AUC(0-inf) / CL/F / Vd/F / half-life / Cmax / Tmax: human, plasma; for Cmax: read-out: Cmax
Text: The bioequivalence clinical trials were phase I, randomized, open-label, crossover, single-centre, with two periods separated by a 7-day washout stage. Subjects were randomised to one of the two treatment sequences, RT or TR where R was the reference formulation and T was the test formulation. Each of the clinical trial was crossover for evaluation of a test formulation compared to a reference formulation either under fed or fasting conditions. […] The treatments were allocated in a balanced manner on every inclusion day (blocks of 4 subjects). Our study adheres to CONSORT guidelines. […] Sample processing, genotyping for CYP2C19 and drug quantification were performed according to Román et al. […] Pharmacokinetic parameters were estimated from the plasma concentration–time data by non-compartmental analysis (WinNonlin Professional, version 2.0., Pharsight Corporation, USA) as reported by Román et al. […] WinNonLin Professional software version 2.0 was used for the statistical analysis. Pharmacokinetic parameters were log-transformed, and AUC and Cmax were adjusted for dose and weight. The values of pharmacokinetic parameters were expressed as mean ± standard deviation.

[3] = both sexes, oral, only CYP2C19*1/*1 subjects, Fast, men and women, mean ± SD
[4] = both sexes, oral, only CYP2C19*1/*1 subjects, Fed, men and women, mean ± SD
[5] = both sexes, po, Fast, all subjects, single oral dose, mean ± SD
[6] = both sexes, po, Fed (high-fat breakfast), all subjects, single oral dose, mean ± SD
[7] = female, oral, only CYP2C19*1/*1 subjects, Fast, women, mean ± SD
[8] = female, oral, only CYP2C19*1/*1 subjects, Fed, women, mean ± SD
[9] = female, po, Fast, women, single oral dose, mean ± SD
[10] = female, po, Fed, women, single oral dose, mean ± SD
[11] = male, oral, only CYP2C19*1/*1 subjects, Fast, men, mean ± SD
[12] = male, oral, only CYP2C19*1/*1 subjects, Fed, men, mean ± SD
[13] = male, po, Fast, men, single oral dose, mean ± SD
[14] = male, po, Fed, men, single oral dose, mean ± SD

Question: Which “effect of concomitant intake of a standard breakfast on bioavailability” value [1] does the source give for `COc1ccnc(C[S+]([O-])c2nc3ccc(OC(F)F)cc3[nH]2)c1OC` (stereo not drawn) [Pantoprazole, pantoprazole] here?
Answer: The value was “no effect on bioavailability”.

Question: And the Ke ([2]; Fast, all subjects, single oral dose, mean ± SD)?
Answer: The Ke was 0.61 ± 0.21.

Question: And the Ke ([2]; Fast, men, single oral dose, mean ± SD)?
Answer: Its Ke is 0.56 ± 0.23.

Question: And the Ke ([2]; Fast, women, single oral dose, mean ± SD)?
Answer: Its Ke is 0.65 ± 0.18.

Question: And the Ke ([2]; Fed (high-fat breakfast), all subjects, single oral dose, mean ± SD)?
Answer: Its Ke is 0.63 ± 0.21.

Question: What about the Ke ([2]; Fed, men, single oral dose, mean ± SD) of the same compound?
Answer: Its Ke is 0.61 ± 0.23.

Question: What about the Ke ([2]; Fed, women, single oral dose, mean ± SD) of the same compound?
Answer: The Ke was 0.65 ± 0.19.

Question: What about the AUC(0-inf) [2, 3] of the same compound?
Answer: The AUC(0-inf) was 6090 ± 2920 ng·h/mL.

Question: And the CL/F [2, 3]?
Answer: Its CL/F is 2 mL/min/kg.

Question: And the Vd/F [2, 3]?
Answer: Its Vd/F is 0.18 ± 0.03 L/kg.

Question: And the half-life [2, 3]?
Answer: The half-life was 1.2 ± 0.4 h.

Question: And the Cmax [2, 3]?
Answer: The Cmax was 2540 ± 836 ng/mL.

Question: What about the Tmax ([2]; both sexes, oral, only CYP2C19*1/*1 subjects, Fast, men and women, mean ± SD, read-out: Tmax) of the same compound?
Answer: Its Tmax is 3 ± 0.7 h.

Question: And the AUC(0-inf) [2, 4]?
Answer: The AUC(0-inf) was 4690 ± 2300 ng·h/mL.

Question: And the CL/F [2, 4]?
Answer: Its CL/F is 2.67 mL/min/kg.

Question: And the Vd/F [2, 4]?
Answer: The Vd/F was 0.24 ± 0.05 L/kg.

Question: And the half-life [2, 4]?
Answer: The half-life was 1.2 ± 0.5 h.

Question: What about the Cmax [2, 4] of the same compound?
Answer: Its Cmax is 2660 ± 531 ng/mL.

Question: What about the Tmax ([2]; both sexes, oral, only CYP2C19*1/*1 subjects, Fed, men and women, mean ± SD, read-out: Tmax) of the same compound?
Answer: Its Tmax is 5.7 ± 1.2 h.

Question: And the Tmax ([2]; both sexes, oral, under fasting conditions, range among subjects, read-out: Tmax range)?
Answer: The Tmax was 1.5 to 5 h.

Question: And the Tmax ([2]; both sexes, oral, under fed conditions, range among subjects, read-out: Tmax range)?
Answer: The Tmax was 1 to 21 h.

Question: What about the AUC(0-inf) [2, 5] of the same compound?
Answer: The AUC(0-inf) was 6950 ± 3290 ng·h/mL.

Question: What about the CL/F [2, 5] of the same compound?
Answer: The CL/F was 1.83 mL/min/kg.

Question: And the Vd/F [2, 5]?
Answer: Its Vd/F is 0.17 ± 0.03 L/kg.

Question: What about the half-life [2, 5] of the same compound?
Answer: The half-life was 1.3 ± 0.6 h.

Question: And the Cmax [2, 5]?
Answer: Its Cmax is 2780 ± 862 ng/mL.

Question: What about the Tmax ([2]; both sexes, po, Fast, all subjects, single oral dose, mean ± SD, read-out: Tmax) of the same compound?
Answer: The Tmax was 3 ± 0.8 h.

Question: And the AUC(0-inf) [2, 6]?
Answer: Its AUC(0-inf) is 4630 ± 2020 ng·h/mL.

Question: And the CL/F [2, 6]?
Answer: Its CL/F is 2.67 mL/min/kg.

Question: What about the Vd/F [2, 6] of the same compound?
Answer: Its Vd/F is 0.26 ± 0.1 L/kg.

Question: What about the half-life [2, 6] of the same compound?
Answer: The half-life was 1.3 ± 0.6 h.

Question: And the Cmax [2, 6]?
Answer: Its Cmax is 2650 ± 603 ng/mL.

Question: And the Tmax ([2]; both sexes, po, Fed (high-fat breakfast), all subjects, single oral dose, mean ± SD, read-out: Tmax)?
Answer: The Tmax was 7 ± 3 h.

Question: What about the “AUC lower under fed conditions” value ([2]; fed vs fasting, all subjects) of the same compound?
Answer: The value was 33%.

Question: What about the “Delay of mean Tmax (absorption) by food” value ([2]; fed vs fasting, all subjects) of the same compound?
Answer: Its value is “around 4 h”.

Question: What about the “Delay of Tmax by food” value ([2]; fed vs fasting, only subjects with CYP2C19*1/*1) of the same compound?
Answer: Its value is 2.7 h.

Question: And the AUC(0-inf) [2, 7]?
Answer: Its AUC(0-inf) is 7820 ± 2700 ng·h/mL.

Question: And the CL/F [2, 7]?
Answer: Its CL/F is 1.83 mL/min/kg.

Question: What about the Vd/F [2, 7] of the same compound?
Answer: The Vd/F was 0.16 ± 0.04 L/kg.

Question: What about the half-life [2, 7] of the same compound?
Answer: The half-life was 1.1 ± 0.2 h.

Question: What about the Cmax [2, 7] of the same compound?
Answer: The Cmax was 3230 ± 685 ng/mL.

Question: And the Tmax ([2]; female, oral, only CYP2C19*1/*1 subjects, Fast, women, mean ± SD, read-out: Tmax)?
Answer: The Tmax was 2.9 ± 0.8 h.

Question: And the AUC(0-inf) [2, 8]?
Answer: Its AUC(0-inf) is 4910 ± 2190 ng·h/mL.

Question: And the CL/F [2, 8]?
Answer: The CL/F was 2.83 mL/min/kg.

Question: What about the Vd/F [2, 8] of the same compound?
Answer: The Vd/F was 0.25 ± 0.06 L/kg.

Question: And the half-life [2, 8]?
Answer: The half-life was 1.1 ± 0.3 h.

Question: And the Cmax [2, 8]?
Answer: The Cmax was 2790 ± 476 ng/mL.

Question: And the Tmax ([2]; female, oral, only CYP2C19*1/*1 subjects, Fed, women, mean ± SD, read-out: Tmax)?
Answer: Its Tmax is 6.2 ± 1.1 h.

Question: What about the AUC(0-inf) [2, 9] of the same compound?
Answer: Its AUC(0-inf) is 7320 ± 2710 ng·h/mL.

Question: And the CL/F [2, 9]?
Answer: Its CL/F is 1.83 mL/min/kg.

Question: What about the Vd/F [2, 9] of the same compound?
Answer: Its Vd/F is 0.16 ± 0.03 L/kg.

Question: And the half-life [2, 9]?
Answer: The half-life was 1.1 ± 0.3 h.

Question: And the Cmax [2, 9]?
Answer: Its Cmax is 3240 ± 859 ng/mL.

Question: And the Tmax ([2]; female, po, Fast, women, single oral dose, mean ± SD, read-out: Tmax)?
Answer: The Tmax was 2.9 ± 0.8 h.

Question: And the AUC(0-inf) [2, 10]?
Answer: Its AUC(0-inf) is 4660 ± 1790 ng·h/mL.

Question: And the CL/F [2, 10]?
Answer: The CL/F was 2.83 mL/min/kg.

Question: And the Vd/F [2, 10]?
Answer: Its Vd/F is 0.28 ± 0.12 L/kg.

Question: What about the half-life [2, 10] of the same compound?
Answer: Its half-life is 1.2 ± 0.7 h.

Question: What about the Cmax [2, 10] of the same compound?
Answer: Its Cmax is 2700 ± 614 ng/mL.

Question: What about the Tmax ([2]; female, po, Fed, women, single oral dose, mean ± SD, read-out: Tmax) of the same compound?
Answer: The Tmax was 8.4 ± 3.7 h.

Question: What about the AUC(0-inf) [2, 11] of the same compound?
Answer: Its AUC(0-inf) is 4780 ± 2470 ng·h/mL.

Question: What about the CL/F [2, 11] of the same compound?
Answer: The CL/F was 2.33 mL/min/kg.

Question: And the Vd/F [2, 11]?
Answer: Its Vd/F is 0.2 ± 0.02 L/kg.

Question: What about the half-life [2, 11] of the same compound?
Answer: Its half-life is 1.3 ± 0.5 h.

Question: And the Cmax [2, 11]?
Answer: Its Cmax is 2020 ± 493 ng/mL.

Question: What about the Tmax ([2]; male, oral, only CYP2C19*1/*1 subjects, Fast, men, mean ± SD, read-out: Tmax) of the same compound?
Answer: The Tmax was 3 ± 0.7 h.

Question: What about the AUC(0-inf) [2, 12] of the same compound?
Answer: The AUC(0-inf) was 4520 ± 2520 ng·h/mL.

Question: What about the CL/F [2, 12] of the same compound?
Answer: Its CL/F is 2.5 mL/min/kg.

Question: And the Vd/F [2, 12]?
Answer: Its Vd/F is 0.23 ± 0.03 L/kg.

Question: And the half-life [2, 12]?
Answer: The half-life was 1.2 ± 0.6 h.

Question: What about the Cmax [2, 12] of the same compound?
Answer: The Cmax was 2560 ± 581 ng/mL.

Question: What about the Tmax ([2]; male, oral, only CYP2C19*1/*1 subjects, Fed, men, mean ± SD, read-out: Tmax) of the same compound?
Answer: The Tmax was 5.3 ± 1.1 h.

Question: And the AUC(0-inf) [2, 13]?
Answer: Its AUC(0-inf) is 6580 ± 3830 ng·h/mL.

Question: And the CL/F [2, 13]?
Answer: The CL/F was 1.83 mL/min/kg.

Question: What about the Vd/F [2, 13] of the same compound?
Answer: The Vd/F was 0.18 ± 0.03 L/kg.

Question: What about the half-life [2, 13] of the same compound?
Answer: Its half-life is 1.5 ± 0.7 h.

Question: And the Cmax [2, 13]?
Answer: The Cmax was 2320 ± 581 ng/mL.

Question: And the Tmax ([2]; male, po, Fast, men, single oral dose, mean ± SD, read-out: Tmax)?
Answer: The Tmax was 3.1 ± 0.8 h.

Question: What about the AUC(0-inf) [2, 14] of the same compound?
Answer: Its AUC(0-inf) is 4610 ± 2270 ng·h/mL.

Question: What about the CL/F [2, 14] of the same compound?
Answer: The CL/F was 2.5 mL/min/kg.

Question: What about the Vd/F [2, 14] of the same compound?
Answer: The Vd/F was 0.25 ± 0.08 L/kg.

Question: What about the half-life [2, 14] of the same compound?
Answer: Its half-life is 1.3 ± 0.5 h.

Question: What about the Cmax [2, 14] of the same compound?
Answer: Its Cmax is 2590 ± 601 ng/mL.

Question: What about the Tmax ([2]; male, po, Fed, men, single oral dose, mean ± SD, read-out: Tmax) of the same compound?
Answer: The Tmax was 5.6 ± 1.1 h.

Question: What about the Ke ([2]; only CYP2C19*1/*1 subjects, Fast, men and women, mean ± SD) of the same compound?
Answer: Its Ke is 0.64 ± 0.19.

Question: And the Ke ([2]; only CYP2C19*1/*1 subjects, Fast, men, mean ± SD)?
Answer: Its Ke is 0.64 ± 0.23.

Question: What about the Ke ([2]; only CYP2C19*1/*1 subjects, Fast, women, mean ± SD) of the same compound?
Answer: The Ke was 0.63 ± 0.12.

Question: What about the Ke ([2]; only CYP2C19*1/*1 subjects, Fed, men and women, mean ± SD) of the same compound?
Answer: Its Ke is 0.67 ± 0.20.

Question: And the Ke ([2]; only CYP2C19*1/*1 subjects, Fed, men, mean ± SD)?
Answer: Its Ke is 0.67 ± 0.25.

Question: What about the Ke ([2]; only CYP2C19*1/*1 subjects, Fed, women, mean ± SD) of the same compound?
Answer: Its Ke is 0.68 ± 0.14.
